The record followed here is ChEMBL document CHEMBL1201862, “PubChem BioAssay data set” (2004).

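Where inhibition never reached the appropriate level, the endpoint shown equals the highest concentration tested. Otherwise, values were interpolated linearly from a five-concentration, 48-hour dose response in 96-well plates. GI50: concentration for 50% inhibition of growth.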 The source made the active and inactive calls. Cut-off read from the data, not from the text of the source: active = GI50 up to about 1.1 µM and inactive = higher. Bounds are passed on as bounds.

What all share (experiment): inhibition of tumour cell growth, NCI panel, 48 h
Test [1] relates to SK-MEL-5.
In test [2] the test system is OVCAR-4.
Test [3] concerns CCRF-CEM.
Test [4] relates to SR.
Test [5] concerns CAKI-1.
Test [6] concerns MDA-N.
Test [7] concerns 786-0.
The test system of test [8] is HL-60.
The subject of test [9] is LOX IMVI.
Test [10] relates to SF-295.
Test [11] deals with SN12C.
The test system of test [12] is MCF7.
Test [13] concerns SNB-75.
The subject of test [14] is BT-549.
The subject of test [15] is NCI-H23.
The test system of test [16] is A498.
The test system of test [17] is A549.
The subject of test [18] is HCC 2998.
Test [19] concerns NCI-H460.
Test [20] concerns UACC-62.

As to `Cc1ccc([N+](=O)[O-])cc1S(=O)(=O)Nc1ccc(C2=NN(C(=O)c3ccccc3)C(c3ccccc3O)C2)cc1` (stereo unspecified), the GI50 in test [1] is 15.8 µM (inactive); in test [2] it was 15.4 µM (inactive); in test [3] it was 17.5 µM (inactive); in test [4], 21.2 µM (inactive); in test [5], 17.6 µM (inactive); in test [6] it was 21.5 µM (inactive). Moreover, the GI50 is 14.4 µM (inactive) in [7]; 18.6 µM (inactive) in test [8]; 18.3 µM (inactive) in test [9]; 23.4 µM (inactive) in test [10]; 13.5 µM (inactive) in [11]; 13.4 µM (inactive) in [12]. Also, the GI50 was 17.1 µM (inactive) in [13]; 14 µM (inactive) in test [14]; 17.1 µM (inactive) in [15]; 12.9 µM (inactive) in test [16]; 19.1 µM (inactive) in [17].
With `O=C(O)CCC(/N=C(\C(=N\C(CCC(=O)O)C(=O)O)c1ccccc1)c1ccccc1)C(=O)O` (stereo unspecified), the GI50 in test [18], in [2], in [4], in test [19], in test [20] and in test [6] was > 100 µM (inactive) throughout. In addition, the GI50 in [7], in [9], in test [10], in [11], in test [12] and in [13] was > 100 µM (inactive) in each case. Also, the GI50 in test [14] is 90.2 µM (inactive); in [15], > 100 µM (inactive); in [16] it was > 100 µM (inactive); in test [17], > 100 µM (inactive).
As to `O=C(NNc1ccnc2cc(Cl)ccc12)/C(=C\c1ccccc1Cl)NC(=O)c1ccccc1`, the GI50 in test [18] was 60 µM (inactive); in test [1], 23.8 µM (inactive); in test [2] it was 32.8 µM (inactive); in test [3] it was 29.8 µM (inactive); in [4], 35 µM (inactive); in test [19], 42.1 µM (inactive). In addition, the GI50 in [5] is 86.3 µM (inactive); in [20], 21 µM (inactive); in [6], 37.3 µM (inactive); in test [7], 41.6 µM (inactive); in test [8], 23.4 µM (inactive); in test [9] it was 17.4 µM (inactive). Besides, the GI50 in [10] was 27.5 µM (inactive); in test [11] it was 38.1 µM (inactive); in test [12], 15.5 µM (inactive); in test [13], 39.3 µM (inactive); in test [14], 33.8 µM (inactive); in test [15] it was 54.7 µM (inactive). Further, the GI50 in test [17] was 38.2 µM (inactive).
As for `CCCC/N=C(/c1ccccc1)N1CCOCC1`, the GI50 in [1], in test [3], in test [4], in [19], in [5] and in test [20] was > 100 µM (inactive) each time. Also, the GI50 in [6], in test [7], in test [8], in test [9], in [10] and in [11] was > 100 µM (inactive) in each case. Moreover, the GI50 is > 100 µM (inactive) in [12]; 1.25 µM (inactive) in test [13]; > 100 µM (inactive) in [14]; > 100 µM (inactive) in [15]; > 100 µM (inactive) in [16].
Turning to `CC(=O)Nc1ccc2cc3[nH]c4cc(NC(C)=O)ccc4c3nc2c1`, the GI50 in [18] is > 100 µM (inactive); in test [1], > 100 µM (inactive); in [2] it was > 100 µM (inactive); in [3], 38 µM (inactive); in test [4], 61.1 µM (inactive); in [19] it was > 100 µM (inactive). Further, the GI50 in test [5], in test [20], in test [6], in [7], in [9] and in [10] was > 100 µM (inactive) throughout. Moreover, the GI50 in test [11], in test [12], in test [13], in test [14], in [15] and in test [16] was > 100 µM (inactive) throughout. Further, the GI50 in test [17] was > 100 µM (inactive).
For `C1=CC2(C=CC13O[C@H](C1CCCCC1)[C@@H](C1CCCCC1)O3)O[C@H](C1CCCCC1)[C@@H](C1CCCCC1)O2`, the GI50 in [1], in test [2], in [4], in [19], in test [5] and in test [20] was > 50 µM (inactive) each time. For the same compound, the GI50 in [6], in test [7], in [8], in [9], in test [10] and in test [11] was > 50 µM (inactive) throughout. Besides, the GI50 in test [12], in test [13], in test [14], in test [15], in [16] and in test [17] was > 50 µM (inactive) each time.
With `CC(C)OP(=O)(OC(C)C)C(C)(C)O`, the GI50 in test [18], in test [1], in [2], in test [3], in test [4] and in test [5] was > 100 µM (inactive) throughout. Further, the GI50 in test [20] is > 100 µM (inactive); in test [6] it was > 100 µM (inactive); in test [7], > 100 µM (inactive); in test [8], 83.2 µM (inactive); in [9], > 100 µM (inactive); in test [10], > 100 µM (inactive). The GI50 in test [11], in test [12], in test [13], in test [14], in test [15] and in test [17] was > 100 µM (inactive) in each case.
Take `Cc1cc(-c2nc3ccc(F)cc3s2)ccc1N`: the GI50 in test [18] is 38.9 µM (inactive); in test [1], 41.4 µM (inactive); in test [3], 9.46 µM (inactive); in test [4] it was > 100 µM (inactive); in test [5] it was > 100 µM (inactive); in [20] it was 89.1 µM (inactive). In addition, the GI50 was > 100 µM (inactive) in [6]; > 100 µM (inactive) in test [7]; > 100 µM (inactive) in test [9]; > 100 µM (inactive) in [10]; > 100 µM (inactive) in test [11]; < 0.01 µM (active) in [12]. The GI50 in [13] is > 100 µM (inactive); in [14], > 100 µM (inactive); in test [15], > 100 µM (inactive); in [16] it was 2.55 µM (inactive); in test [17] it was 42.5 µM (inactive).
